pEC50: −log10 of the molar value.
molecular target: T1, Solute carrier family 12 member 5 (Homo sapiens, UniProt Q9H2X9); test: KCC2 modulator potency by thallium flux, dose response, cell-based, HEK293 KCC2, FluoZin-2 fluorescence (AID 1736); conditions: not given
T1 sequence (Q9H2X9 whole entry): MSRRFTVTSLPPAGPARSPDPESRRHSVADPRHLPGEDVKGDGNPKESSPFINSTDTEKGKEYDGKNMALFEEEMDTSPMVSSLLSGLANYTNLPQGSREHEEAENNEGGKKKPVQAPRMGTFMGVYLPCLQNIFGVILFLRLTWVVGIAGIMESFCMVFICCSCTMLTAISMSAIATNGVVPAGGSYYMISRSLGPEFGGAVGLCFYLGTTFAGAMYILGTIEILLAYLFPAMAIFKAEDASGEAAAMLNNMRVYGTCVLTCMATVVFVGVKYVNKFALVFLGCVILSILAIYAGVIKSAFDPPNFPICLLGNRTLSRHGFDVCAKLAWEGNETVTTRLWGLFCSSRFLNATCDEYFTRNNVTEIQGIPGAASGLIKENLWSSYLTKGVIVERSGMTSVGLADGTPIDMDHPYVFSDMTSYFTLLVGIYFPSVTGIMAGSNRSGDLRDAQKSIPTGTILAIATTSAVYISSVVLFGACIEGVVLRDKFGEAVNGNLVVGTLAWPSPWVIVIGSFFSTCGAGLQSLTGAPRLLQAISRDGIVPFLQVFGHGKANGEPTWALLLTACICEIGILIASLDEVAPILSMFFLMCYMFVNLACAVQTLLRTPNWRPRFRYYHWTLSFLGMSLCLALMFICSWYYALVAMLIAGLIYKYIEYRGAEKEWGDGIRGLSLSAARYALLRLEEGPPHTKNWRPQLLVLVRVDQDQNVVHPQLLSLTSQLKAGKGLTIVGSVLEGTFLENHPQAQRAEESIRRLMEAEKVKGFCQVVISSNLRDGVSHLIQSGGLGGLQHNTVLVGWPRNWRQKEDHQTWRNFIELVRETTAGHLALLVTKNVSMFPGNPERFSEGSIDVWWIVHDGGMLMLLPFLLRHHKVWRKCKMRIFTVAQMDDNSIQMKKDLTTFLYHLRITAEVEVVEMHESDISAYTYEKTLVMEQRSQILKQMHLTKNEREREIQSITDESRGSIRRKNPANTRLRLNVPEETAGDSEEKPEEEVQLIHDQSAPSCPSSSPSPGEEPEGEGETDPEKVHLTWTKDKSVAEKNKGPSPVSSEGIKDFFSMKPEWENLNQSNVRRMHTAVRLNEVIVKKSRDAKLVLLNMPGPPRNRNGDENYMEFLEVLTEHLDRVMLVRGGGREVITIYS

Structure (SMILES)	pEC50
O=C(OCc1ccccn1)c1ccc(COc2ccccc2Cl)o1 [5-(2-Chloro-phenoxymethyl)-furan-2-carboxylic acid pyridin-2-ylmethyl ester]	5.19
N#Cc1nc(Cc2cccc3ccccc23)oc1NCCN1CCOCC1 [5-(2-Morpholin-4-yl-ethylamino)-2-naphthalen-1-ylmethyl-oxazole-4-carbonitrile]	4.99
Sc1nnc(COc2ccc(Cl)cc2)o1 [5-(4-Chloro-phenoxymethyl)-3H-[1,3,4]oxadiazole-2-thione]	5.39
N#Cc1nc(-c2cccs2)oc1N1CCN(Cc2ccccc2)CC1 [5-(4-benzyl-1-piperazinyl)-2-(2-thienyl)-1,3-oxazole-4-carbonitrile]	4.93
O=C(NCC1CCCO1)C(c1cccs1)N(C(=O)c1ccc(-c2ccccc2)[nH]1)C1CCCC1 (configuration not stated) [5-Phenyl-1H-pyrrole-2-carboxylic acid cyclopentyl-{[(tetrahydro-furan-2-ylmethyl)-carbamoyl]-thiophen-2-yl-methyl}-amide]	5.25
Cc1ccc(Cn2nnc3c(=O)[nH]c(C4CCN(S(=O)(=O)c5ccc(F)cc5)CC4)nc32)cc1 [5-[1-(4-fluorophenyl)sulfonylpiperidin-4-yl]-3-[(4-methylphenyl)methyl]-2H-triazolo[4,5-d]pyrimidin-7-one]	4.95
Cc1cccc(OCCc2nnc(N)s2)c1C [5-[2-(2,3-Dimethyl-phenoxy)-ethyl]-[1,3,4]thiadiazol-2-ylamine]	4.28
O=C(NCc1cccnc1)c1ccc(COc2ccc(Cl)cc2Cl)o1 [5-[(2,4-dichlorophenoxy)methyl]-N-(3-pyridinylmethyl)-2-furancarboxamide]	2.69
O=C(Nc1cccnc1)c1ccc(COc2cc(Cl)ccc2Cl)o1 [5-[(2,5-dichlorophenoxy)methyl]-N-(3-pyridinyl)-2-furancarboxamide]	3.97
O=C(NCc1ccc2c(c1)OCO2)c1ccc(COc2cc(Cl)ccc2Cl)o1 [5-[(2,5-dichlorophenoxy)methyl]-N-piperonyl-2-furamide]	5.19
O=C(NCCc1cn2ccccc2n1)c1cc(COc2c(F)cccc2F)on1 [5-[(2,6-difluorophenoxy)methyl]-N-(2-imidazo[1,2-a]pyridin-2-ylethyl)-1,2-oxazole-3-carboxamide]	5.12
O=C(NCc1cccnc1)c1ccc(COc2ccccc2Br)o1 [5-[(2-bromanylphenoxy)methyl]-N-(pyridin-3-ylmethyl)furan-2-carboxamide]	5.04
O=C(Nc1cccnc1)c1ccc(COc2ccccc2Br)o1 [5-[(2-bromanylphenoxy)methyl]-N-pyridin-3-yl-furan-2-carboxamide]	5.28

Results, then the molecule that gave them:

pEC50	Structure (SMILES)
6.18	O=C(NCC1CCCN(C(=O)c2cccnc2)C1)c1ccc(-c2ccccc2)cc1 (configuration not stated) [4-phenyl-N-[(1-pyridin-3-ylcarbonylpiperidin-3-yl)methyl]benzamide]
5.81	Sc1nnc(C2(c3ccccc3)CCCC2)o1 [5-(1-phenylcyclopentyl)-3H-1,3,4-oxadiazole-2-thione]
5.42	Sc1nnc(Cc2c[nH]c3ccccc23)o1 [5-(1H-indol-3-ylmethyl)-1,3,4-oxadiazole-2(3H)-thione]
5.55	COc1cccc(Nc2nnc(S)s2)c1 [5-(3-methoxyanilino)-3H-1,3,4-thiadiazole-2-thione]
5.75	N#Cc1nc(Cc2cccc3ccccc23)oc1N1CCOCC1 [5-(4-morpholinyl)-2-(1-naphthalenylmethyl)-4-oxazolecarbonitrile]
5.61	Sc1nnc(CCc2ccc(Cl)cc2)o1 [5-[2-(4-chlorophenyl)ethyl]-1,3,4-oxadiazole-2-thiol]
5.83	Sc1nnc(CNc2cccc(Cl)c2)o1 [5-[(3-chloroanilino)methyl]-3H-1,3,4-oxadiazole-2-thione]
5.60	Sc1nnc(Nc2ccccc2)s1 [5-anilino-3H-1,3,4-thiadiazole-2-thione]

same assay, conditions: inactive by the depositor's call

pEC50	Structure (SMILES)
7.33	CCOc1ccc(Nc2nnc(S)s2)cc1 [5-(4-ethoxyanilino)-3H-1,3,4-thiadiazole-2-thione]

Source: BindingDB's records for doi:10.7270/Q2Q52N1X (Vanderbilt Screening Center for GPCRs, Ion Channels and …, 2009)
